In patent US20260365653A1, “IRREVERSIBLE MUTEGFR INHIBITORS” (Bayer Aktiengesellschaft, priority 2022, published 2026):

Legend:
[1] = biological target: T1, mutEGFR (D770_N771insSVD) (Homo sapiens, UniProt P00533, DUP768-770); assay: Exon20-Mutant-EGFR (D770_N771insSVD) kinase assay (TR-FRET); type: biochemical; conditions: mutEGFR (D770_N771insSVD) kinase assay IC50, Table 2a; D770_N771insSVD; 2 mM ATP
T1 construct: GST-EGFR #3 (SVD between D770 and N771); made in house; host or cells: Sf9 insect cells (baculovirus)

[2] = biological target: T2, mutEGFR (D770_N771insNPG, T790) (Homo sapiens, UniProt P00533, INS770NPG/T790M); assay: mutEGFR (D770_N771insNPG, T790) kinase assay; type: biochemical; conditions: Table 2a, D770_N771insNPG
T2 construct: exact insNPG construct not described; in-house EGFR proteins were N-terminal GST fusions from baculovirus/insect cells (borders R669-A1210 given only for WT, insSVD, insASV)
From the text: The different EGFR proteins used in the biochemical kinase activity inhibition assays were generated inhouse by expression in insect cells using Baculo Virus system and subsequent purification as described in the following paragraphs.
The cDNAs encoding the various protein sequences from human EGFR human (P00533) were optimized for expression in eukaryotic cells and synthesized by the GeneArt Technology at Life Technologies.

BA/F3 (insSVD) cells = assay: Ba/F3-EGFR-insSVD cell survival assay (Cell Titer-Glo); type: cell-based; conditions: Mus musculus, BaF3, 48 h, Table 3a, cell survival, Cell Titer-Glo, with 10 ng/ml EGF, without IL-3
Protocol: Cellular Data Description (WT, insSVD, insSVD T790M) 293T cells from ATCC were transfected with pBABEpuro expression constructs for WT EGFR or EGFR-insSVD, or EGFR-insSVD T790M, and pCL-Eco packaging vector using Fugene-6 transfection reagent from Promega. Plates were incubated at 37° C. for 48 h. Retrovirus was harvested by filtering the media supernatant through a 0.45 μm filter.
Ba/F3 cells purchased from DSMZ were grown in RPMI+10% FBS+10 ng/ml IL-3 and infected with filtered retroviral supernatant at a 1:2 dilution. Polybrene was added to a concentration of 8 μg/mL, plates were spun for 90 min, and incubated for 16 h at 37° C. 2 μg/mL puromycin was added to the infected cells 24 h after infection and cells were continually grown in the presence of puromycin and 10 ng/ml IL-3. Following stably expressing Ba/F3 cell lines were generated: Ba/F3-EGFR-WT, Ba/F3-EGFR-insSVD, Ba/F3-EGFR-insSVD T790M, (Ba/F3-vector-control).
For cell survival assays, Ba/F3 cells were grown to a density of 1-2 million cells per mL, spun down and resuspended in media without IL-3, and replated at a concentration of 200,000-500,000 cells per mL. The cells ectopically expressing WT EGFR, EGFR-insSVD, or EGFR-insSVD T790M were plated with 10 ng/ml Millipore Culture grade EGF. The cells ectopically expressing pBABEpuro empty vector were plated with 10 ng/mL IL-3.
2 days later, cells were plated in 50 µL in a 384 well plate at a concentration of 4000 cells per well for cells assayed in the absence of IL-3 and 2000 cells per well for cells assayed in the presence of IL-3. 100 nL of compound was added to each well using a 100 nL pin head, and plates were incubated at 37° C. for 48 h.
Cell viability was measured by adding 20 μL of Cell Titer-Glo Luminescent Cell Viability Reagent diluted 1:3 in PBS. Plates were sealed with Perkin Elmer Top-Seal, inverted several times to mix, and immediately centrifuged at 1000 rpm for 2 min. Plates were incubated in low light conditions for 8-10 min and luminescence was measured.

T2 sequence (P00533 with tags, fused parts or gaps INS770NPG/T790M limits assumed): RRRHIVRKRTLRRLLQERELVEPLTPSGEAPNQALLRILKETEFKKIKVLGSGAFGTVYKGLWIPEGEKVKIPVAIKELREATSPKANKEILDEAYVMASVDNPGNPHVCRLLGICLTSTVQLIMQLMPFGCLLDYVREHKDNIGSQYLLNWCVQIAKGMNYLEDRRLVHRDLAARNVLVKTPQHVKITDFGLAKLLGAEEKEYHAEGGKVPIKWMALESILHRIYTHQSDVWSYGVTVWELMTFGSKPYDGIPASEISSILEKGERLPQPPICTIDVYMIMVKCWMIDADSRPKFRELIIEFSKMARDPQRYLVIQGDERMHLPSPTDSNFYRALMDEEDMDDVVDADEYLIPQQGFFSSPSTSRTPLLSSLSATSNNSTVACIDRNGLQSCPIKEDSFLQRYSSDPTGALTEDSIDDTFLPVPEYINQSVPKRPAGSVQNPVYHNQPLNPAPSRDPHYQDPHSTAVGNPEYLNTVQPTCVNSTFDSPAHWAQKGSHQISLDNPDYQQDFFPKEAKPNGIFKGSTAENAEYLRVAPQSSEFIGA
T1 sequence (P00533 with tags, fused parts or gaps DUP768-770): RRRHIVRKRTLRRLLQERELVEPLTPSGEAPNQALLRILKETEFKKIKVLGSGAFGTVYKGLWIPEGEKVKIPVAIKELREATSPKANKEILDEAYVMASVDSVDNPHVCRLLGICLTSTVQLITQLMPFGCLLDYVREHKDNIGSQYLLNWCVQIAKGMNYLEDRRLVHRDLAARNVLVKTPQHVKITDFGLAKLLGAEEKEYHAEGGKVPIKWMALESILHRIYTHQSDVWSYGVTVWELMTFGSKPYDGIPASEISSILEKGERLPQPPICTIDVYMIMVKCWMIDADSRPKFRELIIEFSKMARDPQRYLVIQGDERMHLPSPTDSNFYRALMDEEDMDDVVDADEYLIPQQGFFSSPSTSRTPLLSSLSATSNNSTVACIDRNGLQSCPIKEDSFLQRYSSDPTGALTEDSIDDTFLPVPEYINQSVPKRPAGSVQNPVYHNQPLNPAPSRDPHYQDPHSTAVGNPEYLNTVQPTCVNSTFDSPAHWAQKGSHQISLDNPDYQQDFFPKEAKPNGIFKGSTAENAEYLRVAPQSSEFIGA

| SMILES | IC50 [1] [nM] | IC50 [2] [nM] | IC50 (BA/F3 (insSVD) cells) [nM] |
| --- | --- | --- | --- |
| CN(C)C/C=C/C(=O)N1Cc2c(-c3ccncc3)c(-c3ccc(F)cc3)nn2C(CC(=O)N(C)C)C1 (racemic) [Example 222, 2-[(7RS)-5-[(2E)-4-(dimethylamino)but-2-enoyl]-2-(4-fluorophenyl)-3-(pyridin-4-yl)-4,5,6,7-tetrahydropyrazolo[1,5-a]pyrazin-7-yl]-N,N-dimethylacetamide] | 3.76 | 13 | 658 |
| C=CC(=O)N1Cc2c(-c3ccncc3)c(-c3ccc(OC)cc3)nn2CC1C (racemic) [Example 228, 1-[(6RS)-2-(4-methoxyphenyl)-6-methyl-3-(pyridin-4-yl)-6,7-dihydropyrazolo[1,5-a]pyrazin-5(4H)-yl]prop-2-en-1-one] | 0.724 | 2.2 | 44.6 |
| C=CC(=O)N1Cc2c(-c3ccncc3)c(-c3ccc4cc(F)sc4c3)nn2CC1C (racemic) [Example 229, 1-[(RS)-2-(2-fluoro-1-benzothiophen-6-yl)-6-methyl-3-(pyridin-4-yl)-6,7-dihydropyrazolo[1,5-a]pyrazin-5(4H)-yl]prop-2-en-1-one] | 0.188 | 0.351 | 17.1 |
| C=CC(=O)N1Cc2c(-c3ccncc3)c(-c3ccc(C(F)(F)F)cc3F)nn2CC1C (racemic) [Example 230, 1-[(6RS)-2-[2-fluoro-4-(trifluoromethyl)phenyl]-6-methyl-3-(pyridin-4-yl)-6,7-dihydropyrazolo[1,5-a]pyrazin-5(4H)-yl]prop-2-en-1-one] | 0.416 | 1.04 | 15.6 |
| C=CC(=O)N1Cc2c(-c3ccncc3)c(-c3ccc(OC)cc3F)nn2CC1C (racemic) [Example 231, 1-[(RS)-2-(2-fluoro-4-methoxyphenyl)-6-methyl-3-(pyridin-4-yl)-6,7-dihydropyrazolo[1,5-a]pyrazin-5(4H)-yl]prop-2-en-1-one] | 0.502 | 1.1 | 65.9 |
| C=CC(=O)N1Cc2c(-c3ccncc3)c(-c3ccc4ccccc4c3)nn2CC1C (racemic) [Example 232, 1-[(RS)-6-methyl-2-(naphthalen-2-yl)-3-(pyridin-4-yl)-6,7-dihydropyrazolo[1,5-a]pyrazin-5(4H)-yl]prop-2-en-1-one] | 0.116 | 0.164 | 15.5 |
| C=CC(=O)N1Cc2c(-c3ccncc3)c(-c3ccc4cc(Cl)sc4c3)nn2CC1C (racemic) [Example 233, 1-[(RS)-2-(2-chloro-1-benzothiophen-6-yl)-6-methyl-3-(pyridin-4-yl)-6,7-dihydropyrazolo[1,5-a]pyrazin-5(4H)-yl]prop-2-en-1-one] | 0.258 | 0.467 | 48.7 |
| C=CC(=O)N1Cc2c(-c3ccncc3)c(-c3ccc4ccsc4c3)nn2CC1C (racemic) [Example 234, 1-[(6RS)-2-(1-benzothiophen-6-yl)-6-methyl-3-(pyridin-4-yl)-6,7-dihydropyrazolo[1,5-a]pyrazin-5(4H)-yl]prop-2-en-1-one] | 0.17 | 0.331 | 122 |
| CC1Cn2nc(-c3ccc(Cl)cc3F)c(-c3ccncc3)c2CN1C(=O)/C=C/CN(C)C (racemic) [Example 235, (2E)-1-[(RS)-2-(4-chloro-2-fluorophenyl)-6-methyl-3-(pyridin-4-yl)-6,7-dihydropyrazolo[1,5-a]pyrazin-5(4H)-yl]-4-(dimethylamino)but-2-en-1-one] | 0.18 | 0.592 | 24.1 |
| CC1Cn2nc(-c3ccc4ccsc4c3)c(-c3ccncc3)c2CN1C(=O)/C=C/CN(C)C (racemic) [Example 236, (2E)-1-[(RS)-2-(1-benzothiophen-6-yl)-6-methyl-3-(pyridin-4-yl)-6,7-dihydropyrazolo[1,5-a]pyrazin-5(4H)-yl]-4-(dimethylamino)but-2-en-1-one] | 0.181 | 0.289 | 256 |
| C=C(F)C(=O)N1Cc2c(-c3ccncc3)c(-c3ccc(Cl)cc3F)nn2CC1C (racemic) [Example 237, 1-[(RS)-2-(4-chloro-2-fluorophenyl)-6-methyl-3-(pyridin-4-yl)-6,7-dihydropyrazolo[1,5-a]pyrazin-5(4H)-yl]-2-fluoroprop-2-en-1-one] | 2.94 | 9.96 | 126 |
| C=C(F)C(=O)N1Cc2c(-c3ccncc3)c(-c3ccc4ccsc4c3)nn2CC1C (racemic) [Example 238, 1-[(RS)-2-(1-benzothiophen-6-yl)-6-methyl-3-(pyridin-4-yl)-6,7-dihydropyrazolo[1,5-a]pyrazin-5(4H)-yl]-2-fluoroprop-2-en-1-one] | 1.57 | 2.21 | 68.7 |
| C=CC(=O)N1CCn2nc(-c3ccc(F)cc3)c(-c3ccncc3)c2C1C (racemic) [Example 239, 1-[(RS)-2-(4-fluorophenyl)-4-methyl-3-(pyridin-4-yl)-6,7-dihydropyrazolo[1,5-a]pyrazin-5(4H)-yl]prop-2-en-1-one] | 1.39 | 4.74 | 38.7 |
| C=CC(=O)N1CCn2nc(-c3ccc(Cl)cc3F)c(-c3ccncc3)c2C1C (racemic) [Example 240, 1-[(RS)-2-(4-chloro-2-fluorophenyl)-4-methyl-3-(pyridin-4-yl)-6,7-dihydropyrazolo[1,5-a]pyrazin-5(4H)-yl]prop-2-en-1-one] | 0.437 | 1.5 | 54 |
| C=CC(=O)N1CCn2nc(-c3ccc(OC)cc3)c(-c3ccncc3)c2C1C (racemic) [Example 241, 1-[(RS)-2-(4-methoxyphenyl)-4-methyl-3-(pyridin-4-yl)-6,7-dihydropyrazolo[1,5-a]pyrazin-5(4H)-yl]prop-2-en-1-one] | 3.88 | 12.3 | 77.1 |
| C=CC(=O)N1CCn2nc(-c3ccc4sccc4c3)c(-c3ccncc3)c2C1C (racemic) [Example 242, 1-[(RS)-2-(1-benzothiophen-5-yl)-4-methyl-3-(pyridin-4-yl)-6,7-dihydropyrazolo[1,5-a]pyrazin-5(4H)-yl]prop-2-en-1-one] | 0.445 | 0.839 | 48.2 |
| C=CC(=O)N1CCn2nc(-c3ccc4cc[nH]c4c3)c(-c3ccncc3)c2C1C (racemic) [Example 243, 1-[(RS)-2-(1H-indol-6-yl)-4-methyl-3-(pyridin-4-yl)-6,7-dihydropyrazolo[1,5-a]pyrazin-5(4H)-yl]prop-2-en-1-one] | 0.395 | 0.656 | 97.8 |
| CC1c2c(-c3ccncc3)c(-c3ccc(Cl)cc3F)nn2CCN1C(=O)/C=C/CN(C)C (racemic) [Example 244, (2E)-1-[(RS)-2-(4-chloro-2-fluorophenyl)-4-methyl-3-(pyridin-4-yl)-6,7-dihydropyrazolo[1,5-a]pyrazin-5(4H)-yl]-4-(dimethylamino)but-2-en-1-one] | 0.749 | 1.99 | 168 |
| C=CC(=O)N1Cc2c(-c3ccncc3)c(-c3ccc4sccc4c3)nn2C(C)C1 (racemic) [Example 280, 1-[(7RS)-2-(1-benzothiophen-5-yl)-7-methyl-3-(pyridin-4-yl)-6,7-dihydropyrazolo[1,5-a]pyrazin-5(4H)-yl]prop-2-en-1-one] | 0.0813 | 0.151 | 6.82 |
| C=CC(=O)N1Cc2c(-c3ccncc3)c(-c3ccc(Cl)cc3)nn2C(C)C1 (racemic) [Example 281, 1-[(7RS)-2-(4-chlorophenyl)-7-methyl-3-(pyridin-4-yl)-6,7-dihydropyrazolo[1,5-a]pyrazin-5(4H)-yl]prop-2-en-1-one] | 0.17 | 0.366 | 9.77 |
